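Following 48 hours of exposure in 96-well plates, responses at five concentrations were used to interpolate endpoints linearly. TGI marks complete inhibition of growth.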

The subject of one assay is HOP-92 NSCLC. Put plainly: NCI tumour cell line growth inhibition, 48 h.
`Cc1cc2c(cc1-c1cc3c(cc1C)C(C(C)C)=C(O)C(=O)/C3=C\Nc1c3ccccc3nc3ccccc13)/C(=C/Nc1c3ccccc3nc3ccccc13)C(=O)C(O)=C2C(C)C` yielded a TGI of 21.5 µM.

A further assay has as its system U251 CNS. Put plainly: NCI tumour cell line growth inhibition, 48 h.
On to `Cn1c2ccccc2n2c(N=O)c(-c3ccccc3)nc12`, for which the TGI was more than 100 µM.
The same measure, in the same setting: the same measure for `COC(=O)/C=C(/C)n1nc2ccccc2n1`: more than 100 µM; for `O=C1c2cc(Cl)ccc2-n2cnnc2C2CSCN12` (stereo not given): more than 100 µM; for `Cc1cc2c(cc1-c1cc3c(cc1C)C(C(C)C)=C(O)C(=O)/C3=C\Nc1c3ccccc3nc3ccccc13)/C(=C/Nc1c3ccccc3nc3ccccc13)C(=O)C(O)=C2C(C)C`: 13.7 µM.

A further assay has as its system HL-60(TB) leukemia. Put plainly: NCI tumour cell line growth inhibition, 48 h.
Consider `Cn1c2ccccc2n2c(N=O)c(-c3ccccc3)nc12`, for which the TGI was more than 100 µM.
Still for that read-out and setting: next, `Cc1cc2c(cc1-c1cc3c(cc1C)C(C(C)C)=C(O)C(=O)/C3=C\Nc1c3ccccc3nc3ccccc13)/C(=C/Nc1c3ccccc3nc3ccccc13)C(=O)C(O)=C2C(C)C`: 11.2 µM.

In another assay the test system is DU-145 prostate. Put plainly: NCI tumour cell line growth inhibition, 48 h.
The molecule `Cn1c2ccccc2n2c(N=O)c(-c3ccccc3)nc12` gave a TGI of more than 100 µM.
Same read-out and setting: next, `COC(=O)/C=C(/C)n1nc2ccccc2n1`: more than 100 µM; `O=C1c2cc(Cl)ccc2-n2cnnc2C2CSCN12` (stereo not given): more than 100 µM.
Consider `Cc1cc2c(cc1-c1cc3c(cc1C)C(C(C)C)=C(O)C(=O)/C3=C\Nc1c3ccccc3nc3ccccc13)/C(=C/Nc1c3ccccc3nc3ccccc13)C(=O)C(O)=C2C(C)C`, for which the TGI was determined as 20.6 µM.

For a further assay, the system named is SK-OV-3 ovarian. Put plainly: NCI tumour cell line growth inhibition, 48 h.
`Cn1c2ccccc2n2c(N=O)c(-c3ccccc3)nc12` returned a TGI of more than 100 µM.
The molecule `COC(=O)/C=C(/C)n1nc2ccccc2n1` registered a TGI of more than 100 µM.
In turn, `O=C1c2cc(Cl)ccc2-n2cnnc2C2CSCN12` (stereo not given) yielded a TGI of more than 100 µM.
`Cc1cc2c(cc1-c1cc3c(cc1C)C(C(C)C)=C(O)C(=O)/C3=C\Nc1c3ccccc3nc3ccccc13)/C(=C/Nc1c3ccccc3nc3ccccc13)C(=O)C(O)=C2C(C)C` showed a TGI of 15.9 µM.

The next assay deals with TK-10 renal. The experiment in a line: NCI tumour cell line growth inhibition, 48 h.
`Cn1c2ccccc2n2c(N=O)c(-c3ccccc3)nc12` showed a TGI of more than 100 µM.
As for `COC(=O)/C=C(/C)n1nc2ccccc2n1`, the TGI is more than 100 µM.
Same read-out and setting: the same measure for `O=C1c2cc(Cl)ccc2-n2cnnc2C2CSCN12` (stereo not given): more than 100 µM.

A further assay relates to OVCAR-4 ovarian. Put plainly: NCI tumour cell line growth inhibition, 48 h.
In turn, `Cn1c2ccccc2n2c(N=O)c(-c3ccccc3)nc12` gave a TGI of more than 100 µM.
The same measure, in the same setting: next, `COC(=O)/C=C(/C)n1nc2ccccc2n1`: more than 100 µM; `O=C1c2cc(Cl)ccc2-n2cnnc2C2CSCN12` (stereo not given): more than 100 µM.
As for `Cc1cc2c(cc1-c1cc3c(cc1C)C(C(C)C)=C(O)C(=O)/C3=C\Nc1c3ccccc3nc3ccccc13)/C(=C/Nc1c3ccccc3nc3ccccc13)C(=O)C(O)=C2C(C)C`, the TGI was 12.8 µM.

The test system of a further assay is HOP-62 NSCLC. The experiment in a line: NCI tumour cell line growth inhibition, 48 h.
`Cn1c2ccccc2n2c(N=O)c(-c3ccccc3)nc12` showed a TGI of 27.6 µM.
The same measure, in the same setting: next, `COC(=O)/C=C(/C)n1nc2ccccc2n1`: more than 100 µM; `O=C1c2cc(Cl)ccc2-n2cnnc2C2CSCN12` (stereo not given): more than 100 µM; `Cc1cc2c(cc1-c1cc3c(cc1C)C(C(C)C)=C(O)C(=O)/C3=C\Nc1c3ccccc3nc3ccccc13)/C(=C/Nc1c3ccccc3nc3ccccc13)C(=O)C(O)=C2C(C)C`: 16.6 µM.

In another assay the test system is MCF7 breast. The experiment in a line: NCI tumour cell line growth inhibition, 48 h.
Turning to `Cn1c2ccccc2n2c(N=O)c(-c3ccccc3)nc12`, the TGI is more than 100 µM.
As for `COC(=O)/C=C(/C)n1nc2ccccc2n1`, the TGI is more than 100 µM.
On the same count and under the same terms, the same measure for `O=C1c2cc(Cl)ccc2-n2cnnc2C2CSCN12` (stereo not given): more than 100 µM; for `Cc1cc2c(cc1-c1cc3c(cc1C)C(C(C)C)=C(O)C(=O)/C3=C\Nc1c3ccccc3nc3ccccc13)/C(=C/Nc1c3ccccc3nc3ccccc13)C(=O)C(O)=C2C(C)C`: 11 µM.

A further assay concerns IGROV1 ovarian. The experiment in a line: NCI tumour cell line growth inhibition, 48 h.
For the molecule `Cn1c2ccccc2n2c(N=O)c(-c3ccccc3)nc12`, the TGI was more than 100 µM.
As to `COC(=O)/C=C(/C)n1nc2ccccc2n1`, the TGI was more than 100 µM.
Still for that read-out and setting: next, `O=C1c2cc(Cl)ccc2-n2cnnc2C2CSCN12` (stereo not given): more than 100 µM; `Cc1cc2c(cc1-c1cc3c(cc1C)C(C(C)C)=C(O)C(=O)/C3=C\Nc1c3ccccc3nc3ccccc13)/C(=C/Nc1c3ccccc3nc3ccccc13)C(=O)C(O)=C2C(C)C`: 11.1 µM.

For a further assay, the system named is MDA-N. Put plainly: NCI tumour cell line growth inhibition, 48 h.
In the case of `Cn1c2ccccc2n2c(N=O)c(-c3ccccc3)nc12`, the TGI is more than 100 µM.
Still for that read-out and setting: the same measure for `COC(=O)/C=C(/C)n1nc2ccccc2n1`: more than 100 µM; for `O=C1c2cc(Cl)ccc2-n2cnnc2C2CSCN12` (stereo not given): more than 100 µM; for `Cc1cc2c(cc1-c1cc3c(cc1C)C(C(C)C)=C(O)C(=O)/C3=C\Nc1c3ccccc3nc3ccccc13)/C(=C/Nc1c3ccccc3nc3ccccc13)C(=O)C(O)=C2C(C)C`: 15.8 µM.

The test system of another assay is SK-MEL-2 melanoma. The experiment in a line: NCI tumour cell line growth inhibition, 48 h.
Take `Cn1c2ccccc2n2c(N=O)c(-c3ccccc3)nc12`: the TGI is more than 100 µM.
`COC(=O)/C=C(/C)n1nc2ccccc2n1` returned a TGI of more than 100 µM.
`O=C1c2cc(Cl)ccc2-n2cnnc2C2CSCN12` (stereo not given) yielded a TGI of more than 100 µM.
Still for that read-out and setting: the same measure for `Cc1cc2c(cc1-c1cc3c(cc1C)C(C(C)C)=C(O)C(=O)/C3=C\Nc1c3ccccc3nc3ccccc13)/C(=C/Nc1c3ccccc3nc3ccccc13)C(=O)C(O)=C2C(C)C`: 19.2 µM.

Another assay relates to EKVX NSCLC. The experiment in a line: NCI tumour cell line growth inhibition, 48 h.
Regarding `Cn1c2ccccc2n2c(N=O)c(-c3ccccc3)nc12`, the TGI was more than 100 µM.
The molecule `COC(=O)/C=C(/C)n1nc2ccccc2n1` returned a TGI of more than 100 µM.
In the case of `O=C1c2cc(Cl)ccc2-n2cnnc2C2CSCN12` (stereo not given), the TGI was more than 100 µM.
Molecule `Cc1cc2c(cc1-c1cc3c(cc1C)C(C(C)C)=C(O)C(=O)/C3=C\Nc1c3ccccc3nc3ccccc13)/C(=C/Nc1c3ccccc3nc3ccccc13)C(=O)C(O)=C2C(C)C` showed a TGI of 5.67 µM.

Another assay has as its system MDA-MB-231 breast. The experiment in a line: NCI tumour cell line growth inhibition, 48 h.
Molecule `Cn1c2ccccc2n2c(N=O)c(-c3ccccc3)nc12` registered a TGI of more than 100 µM.
On to `COC(=O)/C=C(/C)n1nc2ccccc2n1`, for which the TGI was more than 100 µM.
Still for that read-out and setting: the same measure for `O=C1c2cc(Cl)ccc2-n2cnnc2C2CSCN12` (stereo not given): more than 100 µM; for `Cc1cc2c(cc1-c1cc3c(cc1C)C(C(C)C)=C(O)C(=O)/C3=C\Nc1c3ccccc3nc3ccccc13)/C(=C/Nc1c3ccccc3nc3ccccc13)C(=O)C(O)=C2C(C)C`: 19 µM.

The subject of the next assay is 786-0 renal. The experiment in a line: NCI tumour cell line growth inhibition, 48 h.
`Cn1c2ccccc2n2c(N=O)c(-c3ccccc3)nc12` displayed a TGI of more than 100 µM.
In the case of `COC(=O)/C=C(/C)n1nc2ccccc2n1`, the TGI is more than 100 µM.
The same measure, in the same setting: the same measure for `O=C1c2cc(Cl)ccc2-n2cnnc2C2CSCN12` (stereo not given): more than 100 µM; for `Cc1cc2c(cc1-c1cc3c(cc1C)C(C(C)C)=C(O)C(=O)/C3=C\Nc1c3ccccc3nc3ccccc13)/C(=C/Nc1c3ccccc3nc3ccccc13)C(=O)C(O)=C2C(C)C`: 14.8 µM.

The test system of the next assay is SK-MEL-5 melanoma. Put plainly: NCI tumour cell line growth inhibition, 48 h.
`Cn1c2ccccc2n2c(N=O)c(-c3ccccc3)nc12` returned a TGI of 34.1 µM.

The record behind these values is PubChem BioAssay (NCI).
